Experimental data reported in the NIST ThermoML archive (doi:10.1016/j.jct.2008.12.021).

Test: osmotic coefficient (dimensionless); mn = molality of the nth substance listed, in mol/kg
Conditions: 323.15 K, Liquid, vapour pressure osmometer

CCCCn1cc[n+](C)c1.COS(=O)(=O)[O-] [1-butyl-3-methylimidazolium methyl sulfate] + CCCO
Conditions | osmotic coefficient
m1 = 0.0437 | 0.873
m1 = 0.0547 | 0.829
m1 = 0.2041 | 0.691
m1 = 0.3571 | 0.639
m1 = 0.5002 | 0.628
m1 = 0.6627 | 0.628
m1 = 0.8487 | 0.629
m1 = 1.007 | 0.629
m1 = 1.28 | 0.628
m1 = 1.665 | 0.62
m1 = 2.143 | 0.599
m1 = 2.937 | 0.581

COS(=O)(=O)[O-].Cn1cc[n+](C)c1 [1,3-dimethylimidazolium methylsulfate] + CCO
Conditions | osmotic coefficient
m1 = 0.0289 | 0.815
m1 = 0.0374 | 0.794
m1 = 0.0789 | 0.719
m1 = 0.0991 | 0.687
m1 = 0.1941 | 0.626
m1 = 0.3285 | 0.56
m1 = 0.4326 | 0.53
m1 = 0.5312 | 0.503
m1 = 0.6925 | 0.479
m1 = 0.9868 | 0.449
m1 = 1.284 | 0.424
m1 = 1.699 | 0.399
m1 = 2.078 | 0.382
m1 = 2.489 | 0.363
m1 = 2.937 | 0.345
m1 = 3.314 | 0.326
m1 = 3.709 | 0.325
m1 = 4.016 | 0.331

COS(=O)(=O)[O-].Cn1cc[n+](C)c1 [1,3-dimethylimidazolium methylsulfate] + CCCO
Conditions | osmotic coefficient
m1 = 0.0512 | 0.848
m1 = 0.079 | 0.772
m1 = 0.0997 | 0.727
m1 = 0.2023 | 0.67
m1 = 0.2902 | 0.59
m1 = 0.3952 | 0.544
m1 = 0.488 | 0.526
m1 = 0.6881 | 0.492
m1 = 0.9815 | 0.454
m1 = 1.299 | 0.432
m1 = 1.691 | 0.396
m1 = 2.097 | 0.375
m1 = 2.545 | 0.36
m1 = 2.929 | 0.343
m1 = 3.323 | 0.334
m1 = 3.71 | 0.322

CCCCn1cc[n+](C)c1.COS(=O)(=O)[O-] [1-butyl-3-methylimidazolium methyl sulfate] + CCO
Conditions | osmotic coefficient
m1 = 0.0495 | 0.78
m1 = 0.0783 | 0.716
m1 = 0.176 | 0.646
m1 = 0.3283 | 0.573
m1 = 0.3907 | 0.55
m1 = 0.5167 | 0.529
m1 = 0.6846 | 0.508
m1 = 0.9851 | 0.496
m1 = 1.318 | 0.499
m1 = 1.727 | 0.48
m1 = 2.093 | 0.474
m1 = 2.507 | 0.465
m1 = 2.914 | 0.448
m1 = 3.311 | 0.424
m1 = 3.697 | 0.408

CCCCn1cc[n+](C)c1.COS(=O)(=O)[O-] [1-butyl-3-methylimidazolium methyl sulfate] + CC(C)O
Conditions | osmotic coefficient
m1 = 0.0524 | 0.95
m1 = 0.0842 | 0.905
m1 = 0.1084 | 0.871
m1 = 0.2087 | 0.799
m1 = 0.3036 | 0.733
m1 = 0.4106 | 0.685
m1 = 0.4869 | 0.648
m1 = 0.682 | 0.588
m1 = 0.9823 | 0.523
m1 = 1.32 | 0.493
m1 = 1.692 | 0.488
m1 = 2.05 | 0.502
m1 = 2.446 | 0.48
m1 = 2.829 | 0.455
m1 = 3.311 | 0.451

COS(=O)(=O)[O-].Cn1cc[n+](C)c1 [1,3-dimethylimidazolium methylsulfate] + CC(C)O
Conditions | osmotic coefficient
m1 = 0.0241 | 0.914
m1 = 0.0557 | 0.846
m1 = 0.2089 | 0.683
m1 = 0.3053 | 0.614
m1 = 0.3982 | 0.588
m1 = 0.6947 | 0.509
m1 = 0.9721 | 0.461
m1 = 1.274 | 0.442
m1 = 1.66 | 0.416
m1 = 2.058 | 0.392
m1 = 2.447 | 0.364
m1 = 2.827 | 0.343
m1 = 3.313 | 0.329
m1 = 3.712 | 0.323
m1 = 4.112 | 0.298
